US20150011466A1, “APJ Receptor Compounds” (priority 2012, published 2015)
Read-outs that look alike come from different tables or passages of the source. Where a SMILES comes first, the peptide text is derived from it. Where no end group is shown, it is not given here. [ ]: non-standard residue; d: D form. The star is where a group is joined. Palmitoyl = CCCCCCCCCCCCCCCC(=O)*; Aib = CC(C)(N)C(=O)O

Assays:
APJ receptor = target: T1, APJ receptor (Homo sapiens, UniProt P35414); assay: HTRF cAMP assay, inhibition of NKH477 stimulated cAMP in Human TRex cells expressing APJ upon doxycycline induction (APJ-hTREX); format: cell-based; conditions: for Ranking: class combining EC50 and % histamine; for percent intrinsic activity at 0.3 µM: read-out: % IA (@ 300 nM)
T1 construct: expressed in transfected cells; host or cells: Human TRex cells (doxycycline-inducible)
T1 sequence (P35414 1-380): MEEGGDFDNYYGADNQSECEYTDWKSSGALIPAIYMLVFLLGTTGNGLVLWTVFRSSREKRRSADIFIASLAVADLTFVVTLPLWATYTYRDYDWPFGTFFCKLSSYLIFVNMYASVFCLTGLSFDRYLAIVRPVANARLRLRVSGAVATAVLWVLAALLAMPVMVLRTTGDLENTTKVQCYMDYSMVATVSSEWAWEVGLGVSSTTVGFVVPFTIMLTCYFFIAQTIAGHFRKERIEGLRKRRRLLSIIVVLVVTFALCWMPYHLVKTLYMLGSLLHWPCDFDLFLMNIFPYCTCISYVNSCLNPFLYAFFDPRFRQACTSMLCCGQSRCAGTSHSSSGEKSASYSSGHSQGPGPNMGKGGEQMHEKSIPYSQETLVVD
From the text: HTRF (homogeneous time resolved fluorescence) is a technology developed by Cisbio Bioassays based on TR-FRET (time-resolved fluorescence resonance energy transfer). Cisbio Bioassays has developed a wide selection of HTRF-based assays compatible with whole cells, thereby enabling functional assays to run under more physiological conditions. The IP-One assays are competitive immunoassays using cryptate-labeled anti-IP1 monoclonal antibody and d2-labeled IP1. IP1 is a relatively stable downstream metabolite of IP3, and accumulates in cells following Gq receptor activation.
cAMP kits based on a competitive immunoassay using cryptate-labeled anti-cAMP antibody and d2-labeled cAMP were used to assay the effects of APJ compounds of the present invention. […] Cells are treated with […] doxycycline and seeded in all white 96 well plates @ 40 k/well overnight.

[1] = inhibition of NKH477 stimulated cAMP, APJ-hTREX cells, read-out: APJ-hTREX EC50

Compound	Histimine (% vs. 48/40) (Histimine (% vs. 48/40)) [%]	percent intrinsic activity at 0.3 µM (APJ receptor) [%]	other results
CCCCCCCCCCCCCCCC(=O)N[C@H](C(=O)N[C@H](C(=O)N[C@@H](Cc1ccccc1)C(=O)N[C@@H](CCCNC(=N)N)C(=O)N[C@@H](CO)C(=O)N[C@@H](CO)C(=O)N[C@@H](CCC(=O)O)C(=O)N[C@H](CCCCN)C(=O)N[C@@H](Cc1ccccc1)C(=O)N[C@@H](CCCNC(=N)N)C(=O)N[C@@H](CO)C(=O)N[C@@H](C)C(=O)N[C@@H](CC(=O)O)C(=O)N[C@H](C(=O)N[C@@H](Cc1ccccc1)C(=O)N[C@H](C(N)=O)[C@@H](C)CC)[C@@H](C)CC)C(C)C)[C@@H](C)O [Compound 3] (Palmitoyl-TVFRSSE[dK]FRSADIFI-NH2; C-terminus assumed)	29	71	EC50 (APJ receptor): 243 nM; Ranking (APJ receptor): **** (EC50 101-500 nM and % histamine<35%)
CCCCCCCCCCCCCCCC(=O)N[C@H](C(=O)N[C@H](C(=O)N[C@@H](Cc1ccccc1)C(=O)N[C@@H](CCCNC(=N)N)C(=O)N[C@@H](CO)C(=O)N[C@@H](CO)C(=O)N[C@@H](CCC(=O)O)C(=O)N[C@H](CCCCN)C(=O)N[C@@H](CCCNC(=N)N)C(=O)N[C@@H](CCCNC(=N)N)C(=O)N[C@@H](CO)C(=O)N[C@@H](C)C(=O)N[C@@H](Cc1ccccc1)C(=O)N[C@H](C(=O)N[C@@H](Cc1ccccc1)C(=O)N[C@H](C(N)=O)[C@@H](C)CC)[C@@H](C)CC)C(C)C)[C@@H](C)O [Compound 4] (Palmitoyl-TVFRSSE[dK]RRSAFIFI-NH2)	118	65	–
CCCCCCCCCCCCCCCC(=O)N[C@H](C(=O)N[C@H](C(=O)N[C@@H](Cc1ccccc1)C(=O)N[C@@H](CCCNC(=N)N)C(=O)N[C@@H](CO)C(=O)N[C@@H](CO)C(=O)N[C@@H](CCC(=O)O)C(=O)N[C@H](CCCCN)C(=O)N[C@@H](CCCNC(=N)N)C(=O)N[C@@H](CCCNC(=N)N)C(=O)N[C@@H](CO)C(=O)N[C@@H](C)C(=O)N[C@@H](CC(=O)O)C(=O)N[C@H](C(=O)N[C@@H](Cc1ccccc1)C(=O)N[C@@H](Cc1ccccc1)C(N)=O)[C@@H](C)CC)C(C)C)[C@@H](C)O [Compound 6] (Palmitoyl-TVFRSSE[dK]RRSADIFF-NH2; C-terminus assumed)	70	76	Ranking (APJ receptor): *** (EC50<100 nM and % histamine>35%); EC50 (APJ receptor; [1]): 49.2 nM
CCCCCCCCCCCCCCCC(=O)N[C@H](C(=O)N[C@H](C(=O)N[C@@H](Cc1ccccc1)C(=O)N[C@@H](CCCNC(=N)N)C(=O)N[C@@H](CO)C(=O)N[C@@H](Cc1c[nH]cn1)C(=O)N[C@@H](CCC(=O)O)C(=O)N[C@H](CCCCN)C(=O)N[C@@H](CCCNC(=N)N)C(=O)N[C@@H](CCCNC(=N)N)C(=O)N[C@@H](CO)C(=O)N[C@@H](C)C(=O)N[C@@H](CC(=O)O)C(=O)N[C@H](C(=O)N[C@@H](Cc1ccccc1)C(=O)N[C@H](C(N)=O)[C@@H](C)CC)[C@@H](C)CC)C(C)C)[C@@H](C)O [Compound 11] (Palmitoyl-TVFRSHE[dK]RRSADIFI-NH2; C-terminus assumed)	38	68	EC50 (APJ receptor): 65.1 nM; Ranking (APJ receptor): *** (EC50<100 nM and % histamine>35%)
CCCCCCCCCCCCCCCC(=O)N[C@H](C(=O)N[C@H](C(=O)N[C@@H](Cc1ccccc1)C(=O)N[C@@H](CCCNC(=N)N)C(=O)N[C@@H](CO)C(=O)N[C@@H](CO)C(=O)N[C@@H](CCC(=O)O)C(=O)N[C@H](CCCCN)C(=O)N[C@@H](CCCNC(=N)N)C(=O)N[C@@H](Cc1c[nH]cn1)C(=O)N[C@@H](CO)C(=O)N[C@@H](C)C(=O)N[C@@H](CC(=O)O)C(=O)N[C@H](C(=O)N[C@@H](Cc1ccccc1)C(=O)N[C@H](C(N)=O)[C@@H](C)CC)[C@@H](C)CC)C(C)C)[C@@H](C)O [Compound 14] (Palmitoyl-TVFRSSE[dK]RHSADIFI-NH2; C-terminus assumed)	20	74	Ranking (APJ receptor): **** (EC50 101-500 nM and % histamine<35%); EC50 (APJ receptor; [1]): 253 nM
CCCCCCCCCCCCCCCC(=O)N[C@H](C(=O)N[C@H](C(=O)N[C@@H](Cc1ccccc1)C(=O)N[C@@H](CCCNC(=N)N)C(=O)N[C@@H](CO)C(=O)N[C@@H](CO)C(=O)N[C@@H](CCC(=O)O)C(=O)N[C@H](CCCCN)C(=O)N[C@@H](CCCNC(=N)N)C(=O)N[C@@H](CCCNC(=N)N)C(=O)N[C@@H](CO)C(=O)N[C@@H](Cc1c[nH]cn1)C(=O)N[C@@H](CC(=O)O)C(=O)N[C@H](C(=O)N[C@@H](Cc1ccccc1)C(=O)N[C@H](C(N)=O)[C@@H](C)CC)[C@@H](C)CC)C(C)C)[C@@H](C)O [Compound 15] (Palmitoyl-TVFRSSE[dK]RRSHDIFI-NH2)	103	77	–
CCCCCCCCCCCCCCCC(=O)N[C@H](C(=O)N[C@H](C(=O)N[C@@H](Cc1ccccc1)C(=O)N[C@@H](CCCNC(=N)N)C(=O)N1CCC[C@H]1C(=O)N[C@@H](CO)C(=O)N[C@@H](CCC(=O)O)C(=O)N[C@H](CCCCN)C(=O)N[C@@H](CCCNC(=N)N)C(=O)N[C@@H](CCCNC(=N)N)C(=O)N[C@@H](CO)C(=O)N[C@@H](C)C(=O)N[C@@H](CC(=O)O)C(=O)N[C@H](C(=O)N[C@@H](Cc1ccccc1)C(=O)N[C@H](C(N)=O)[C@@H](C)CC)[C@@H](C)CC)C(C)C)[C@@H](C)O [Compound 45] (Palmitoyl-TVFRPSE[dK]RRSADIFI-NH2)	–	70	–
CCCCCCCCCCCCCCCC(=O)N[C@H](C(=O)N[C@H](C(=O)N[C@@H](Cc1ccccc1)C(=O)N[C@@H](CCCNC(=N)N)C(=O)N[C@@H](CO)C(=O)N1CCC[C@H]1C(=O)N[C@@H](CCC(=O)O)C(=O)N[C@H](CCCCN)C(=O)N[C@@H](CCCNC(=N)N)C(=O)N[C@@H](CCCNC(=N)N)C(=O)N[C@@H](CO)C(=O)N[C@@H](C)C(=O)N[C@@H](CC(=O)O)C(=O)N[C@H](C(=O)N[C@@H](Cc1ccccc1)C(=O)N[C@H](C(N)=O)[C@@H](C)CC)[C@@H](C)CC)C(C)C)[C@@H](C)O [Compound 46] (Palmitoyl-TVFRSPE[dK]RRSADIFI-NH2)	–	77	–
CCCCCCCCCCCCCCCC(=O)N[C@H](C(=O)N[C@H](C(=O)N[C@@H](Cc1ccccc1)C(=O)N[C@@H](CCCNC(=N)N)C(=O)N[C@@H](CO)C(=O)NC(C)(C)C(=O)N[C@@H](CCC(=O)O)C(=O)N[C@H](CCCCN)C(=O)N[C@@H](CCCNC(=N)N)C(=O)N[C@@H](CCCNC(=N)N)C(=O)N[C@@H](CO)C(=O)N[C@@H](C)C(=O)N[C@@H](CC(=O)O)C(=O)N[C@H](C(=O)N[C@@H](Cc1ccccc1)C(=O)N[C@H](C(N)=O)[C@@H](C)CC)[C@@H](C)CC)C(C)C)[C@@H](C)O [Compound 59] (Palmitoyl-TVFRS[Aib]E[dK]RRSADIFI-NH2)	–	66	–
CCCCCCCCCCCCCCCC(=O)N[C@H](C(=O)N[C@H](C(=O)N[C@@H](Cc1ccccc1)C(=O)N[C@@H](CCCNC(=N)N)C(=O)N[C@@H](CO)C(=O)NCC(=O)N[C@@H](CCC(=O)O)C(=O)N[C@H](CCCCN)C(=O)N[C@@H](CCCNC(=N)N)C(=O)N[C@@H](CCCNC(=N)N)C(=O)N[C@@H](CO)C(=O)N[C@@H](C)C(=O)N[C@@H](CC(=O)O)C(=O)N[C@H](C(=O)N[C@@H](Cc1ccccc1)C(=O)N[C@H](C(N)=O)[C@@H](C)CC)[C@@H](C)CC)C(C)C)[C@@H](C)O [Compound 73] (Palmitoyl-TVFRSGE[dK]RRSADIFI-NH2)	–	67	–
CCCCCCCCCCCCCCCC(=O)N[C@H](C(=O)N[C@H](C(=O)N[C@@H](Cc1ccccc1)C(=O)N[C@@H](CCCNC(=N)N)C(=O)N[C@@H](CO)C(=O)N[C@@H](CO)C(=O)NCC(=O)N[C@H](CCCCN)C(=O)N[C@@H](CCCNC(=N)N)C(=O)N[C@@H](CCCNC(=N)N)C(=O)N[C@@H](CO)C(=O)N[C@@H](C)C(=O)N[C@@H](CC(=O)O)C(=O)N[C@H](C(=O)N[C@@H](Cc1ccccc1)C(=O)N[C@H](C(N)=O)[C@@H](C)CC)[C@@H](C)CC)C(C)C)[C@@H](C)O [Compound 74] (Palmitoyl-TVFRSSG[dK]RRSADIFI-NH2)	–	61	–
CCCCCCCCCCCCCCCC(=O)N[C@H](C(=O)N[C@H](C(=O)N[C@@H](Cc1ccccc1)C(=O)N[C@@H](CCCNC(=N)N)C(=O)N[C@@H](CO)C(=O)N[C@@H](CO)C(=O)N[C@@H](CCC(=O)O)C(=O)N[C@H](CCCCN)C(=O)NCC(=O)N[C@@H](CCCNC(=N)N)C(=O)N[C@@H](CO)C(=O)N[C@@H](C)C(=O)N[C@@H](CC(=O)O)C(=O)N[C@H](C(=O)N[C@@H](Cc1ccccc1)C(=O)N[C@H](C(N)=O)[C@@H](C)CC)[C@@H](C)CC)C(C)C)[C@@H](C)O [Compound 75] (Palmitoyl-TVFRSSE[dK]GRSADIFI-NH2)	–	57	–
TVFRSSEkPRSADIFI (TVFRSSE[dK]PRSADIFI; also: Pal-C(O)- tether, place not given here) [Compound 49]	–	–	% IA (@ 300 nM) (APJ receptor): 49%
TVFRSSEkRRSADFFI (TVFRSSE[dK]RRSADFFI; also: Pal-C(O)- tether, place not given here) [Compound 5]	–	–	% IA (@ 300 nM) (APJ receptor): 81%
